Literature values, collected in patent US20100179202A1, “ORALLY DISINTEGRATING COMPOSITION OF ZOLMITRIPTAN” (AJANTA PHARMA LIMITED., priority 2009, published 2010).

Conditions: background description of the drug substance

CN(C)CCc1c[nH]c2ccc(C[C@H]3COC(=O)N3)cc12 [Zolmitriptan, (4S)-4-{[3-(2-dimethylaminoethyl)-1H-indol-5-yl]methyl}-1,3-oxazolidin-2-one]
solubility in water: readily soluble in water
